Experimental data from article PMC10518255, “A first-in-class pan-lysyl oxidase inhibitor impairs stromal remodeling and enhances gemcitabine response and survival in pancreatic cancer” (Nature Cancer, 2023).
Values joined by “and” are separate entries in the source; they are usually repeats but may differ in a detail not shown here. Equal entries are not always repeated.

Test system: TKCC10 human PDX tumors
Assay: TKCC10 human model, bulk modulus by unconfined compression (Extended Data Fig. 5e)
Format: in vivo, mouse
Parameters: key to Bulk modulus (stiffness) by unconfined compression testing: bulk elastic modulus in kPa
Conditions: for Bulk modulus (stiffness) by unconfined compression testing: Extended Data 5E, endpoint human PDX tumours, individual animals
Method: Unconfined compression of in vivo tissue samples was carried out on 2–3-mm cross-sectional slices using a TA Instruments Dynamic Hybrid Rheometer (DHR-3, TA Instruments). Tissue samples were placed between upper and lower parallel plate geometries. A constant linear compressive rate of 5 µm s^−1 was applied to the samples and axial force (N) and gap (mm) were collected every 0.01 s. Data were processed and a stress–strain curve for each replicate was obtained. Bulk elastic modulus (kPa) was obtained as the gradient of the linear region of the stress–strain curve corrected for cross-sectional area of sample. Data points represent individual biological replicates.
Subcutaneous PDX studies were performed by implanting early passage PDX pieces (~4 mm^3) or TKCC10 CCs (1.5 × 10^6 cells per mouse in 100 μl PBS/Matrigel 1:1) into female (PDX) or male (TKCC10) 8-week-old immunocompromised nude Balb/c-Fox1nuAusb mice subcutaneously on the left flank. For the duration of the study, mice were kept in conventional caging with environmental enrichment, access to standard chow, water ad libitum and 12-h light–dark cycle at ambient temperature and humidity. […] Tumor size was monitored every second day by calipers. Tumor volume was calculated using the formula (length × width^2)/2. […]
Extended Data Fig. 5 PXS-5505 in combination with gemcitabine in vivo. a. […] Signal is defined as the enzyme activity in the aorta, while noise is measured in the presence of a high concentration (300 µM) BAPN to abolish any lysyl oxidase family activity. […] FITC-dextran (molecular weight: 10 kDa) signal quantification from KPC tumor end point from each treatment group (vehicle n = 3 biologically independent animals, PXS-5505 n = 5 biologically independent animals, Gem n = 5 biologically independent animals, PXS-5505 + Gem n = 5 biologically independent animals). […] P-values determined by Welchs t-test. […] Quantification of red birefringent (mature) collagen fibers from human PDXs at end point after 3 cycles of treatment, treated as indicated. […] P values determined by Welchs t-test. g. […]

Nc1ccn([C@@H]2O[C@H](CO)[C@@H](O)C2(F)F)c(=O)n1 [Gem, gemcitabine]
Bulk modulus (stiffness) by unconfined compression testing: 110.51 and 99.1 and 103.39 and 48.75 and 58.11
tumor bulk stiffness (TKCC10 model, three rounds of therapy): significant increase in tumor bulk stiffness

Cl.Cl.NC/C=C(\F)CS(=O)(=O)c1cccc2cccnc12.O [PXS-5505, (Z)-3-fluoro-4-(quinolin-8-ylsulfonyl)but-2-en-1-amine dihydrochloride monohydrate]
Bulk modulus (stiffness) by unconfined compression testing: 8.16 and 16.78 and 14.19 and 5.55 and 12.49
